Assay [1] concerns E. coli ATCC 25922. Kind of assay: Checkerboard dilution assay for synergy between CAMPs and antibiotics. In kind it is cell-based.
In assay [2] the test system is E. coli ATCC 25922. Kind of assay: MIC test for dividing and non-dividing bacterial cultures. The note with it: Escherichia coli, ATCC25922, 1 h. In kind it is cell-based.
The mark [3] stands for this setting: peptide + ampicillin, 5 × 10^3 CFU/mL.
[4] abbreviates: peptide + ampicillin, 5 × 10^5 CFU/mL.
Setting [5] is: peptide + gentamicin, 5 × 10^3 CFU/mL.
Where [6] appears, read: peptide + gentamicin, 5 × 10^5 CFU/mL.
Where [7] appears, read: peptide + levofloxacin, 5 × 10^3 CFU/mL.
Setting [8] is: peptide + levofloxacin, 5 × 10^5 CFU/mL.
The mark [9] stands for this setting: read-out: MIC, dividing cells (LB).
Setting [10] is: read-out: MIC, non-dividing cells (PBS).

Consider 12 molecules from paper PMC10979160 (Heliyon, 2024).

Values after ≈ are worked out from the molar mass of the structure shown. Where a name gives a salt, the structure may show the parent alone. Read-outs that look alike come from different tables or passages of the source. Where a SMILES comes first, the peptide text is derived from it. [ ]: non-standard residue; d: D form.

For the molecule `CC[C@@H](C)[C@@H](NC(=O)[C@@H](Cc1c[nH]c2ccccc12)NC(=O)[C@H](N)CCCNC(=N)N)C(=O)N[C@H](CCCNC(=N)N)C(=O)N[C@H](Cc1c[nH]c2ccccc12)C(=O)N[C@@H](C(=O)N[C@H](Cc1c[nH]c2ccccc12)C(=O)N[C@H](CCCNC(=N)N)C(=O)N[C@H](CCCCN)C(=O)N[C@H](CCCCN)C(=O)N[C@H](CC(C)C)C(=O)N[C@H](CCCNC(=N)N)C(N)=O)C(C)C` [24D] (H-[dR][dW][dI][dR][dW][dV][dW][dR][dK][dK][dL][dR]-NH2), the FICI in the assay on E. coli ATCC 25922 [1] (setting [3]) came to 1.016; in the assay on E. coli ATCC 25922 [1] (setting [4]), 0.625; with E. coli ATCC 25922 [1] (setting [5]), 1.015; with E. coli ATCC 25922 [1] (setting [6]), 1; in the assay with E. coli ATCC 25922 [1] (setting [7]), 1; in the assay with E. coli ATCC 25922 [1] (setting [8]), 1.031.

As for `CC[C@H](C)[C@H](NC(=O)[C@H](Cc1c[nH]c2ccccc12)NC(=O)[C@@H](N)CCCNC(=N)N)C(=O)N[C@@H](CCCNC(=N)N)C(=O)N[C@@H](Cc1c[nH]c2ccccc12)C(=O)N[C@H](C(=O)N[C@@H](Cc1c[nH]c2ccccc12)C(=O)N[C@@H](CCCNC(=N)N)C(=O)N[C@@H](CCCCN)C(=O)N[C@@H](CCCCN)C(=O)N[C@@H](CC(C)C)C(=O)N[C@@H](CCCNC(=N)N)C(N)=O)C(C)C` [24L] (H-RWIRWVWRKKLR-NH2), the FICI in the assay on E. coli ATCC 25922 [1] (setting [3]) stood at 0.625; in the assay on E. coli ATCC 25922 [1] (setting [4]), 0.5; in the assay on E. coli ATCC 25922 [1] (setting [5]), 1; in the assay with E. coli ATCC 25922 [1] (setting [6]), 0.5; in the assay on E. coli ATCC 25922 [1] (setting [7]) it was 0.75; with E. coli ATCC 25922 [1] (setting [8]), 0.5.

Broadly, the MIC is the lowest concentration that inhibits growth of the organism. Take `CC1(C)S[C@@H]2[C@H](NC(=O)[C@H](N)c3ccccc3)C(=O)N2[C@H]1C(=O)O` [Ampicillin, ampicillin sodium salt]: the MIC in the assay on E. coli ATCC 25922 [2] (setting [9]) and in the assay on E. coli ATCC 25922 [2] (setting [10]) was more than 100 µg/mL each time.

As for `CNC(C)C1CCC(N)C(OC2C(N)CC(N)C(OC3OCC(C)(O)C(NC)C3O)C2O)O1` (stereo not shown) [Gentamicin, gentamicin], the minimum inhibitory concentration (MIC) turned out to be 50 µg/mL (≈ 105 µM) with E. coli ATCC 25922 [2] (setting [9]) and 25 µg/mL (≈ 52.3 µM) in the assay with E. coli ATCC 25922 [2] (setting [10]).

Consider `CC[C@H](C)[C@H](NC(=O)[C@H](C)N)C(=O)N[C@@H](CCCCN)C(=O)N[C@H](C(=O)N[C@@H](CCCNC(=N)N)C(=O)N[C@@H](CCCCN)C(=O)N[C@@H](CC(C)C)C(=O)N[C@@H](Cc1ccccc1)C(=O)N[C@@H](CCCCN)C(=O)N[C@@H](CCCCN)C(=O)N[C@@H](CC(C)C)C(=O)N[C@@H](CC(C)C)C(=O)N[C@@H](CCCNC(=N)N)C(N)=O)[C@@H](C)CC` [L1L] (H-AIKIRKLFKKLLR-NH2), for which the FICI in the assay with E. coli ATCC 25922 [1] (setting [3]) was 0.563; with E. coli ATCC 25922 [1] (setting [4]), 0.5; with E. coli ATCC 25922 [1] (setting [5]), 0.75; in the assay on E. coli ATCC 25922 [1] (setting [6]) it was 0.5; in the assay on E. coli ATCC 25922 [1] (setting [7]), 0.625; in the assay with E. coli ATCC 25922 [1] (setting [8]) it was 0.5.

In the case of `CC[C@H](C)[C@H](NC(=O)CN)C(=O)N[C@@H](CCCCN)C(=O)N[C@H](C(=O)N[C@@H](CCCNC(=N)N)C(=O)N[C@@H](CCCCN)C(=O)N[C@@H](CC(C)C)C(=O)N[C@@H](Cc1ccccc1)C(=O)N[C@@H](CCCCN)C(=O)N[C@@H](CCCCN)C(=O)N[C@@H](CC(C)C)C(=O)N[C@@H](CC(C)C)C(=O)N[C@@H](CCCNC(=N)N)C(N)=O)[C@@H](C)CC` [LCAPL2] (H-GIKIRKLFKKLLR-NH2), the FICI in the assay on E. coli ATCC 25922 [1] (setting [3]) is listed as 0.5; in the assay on E. coli ATCC 25922 [1] (setting [4]), 0.75; in the assay on E. coli ATCC 25922 [1] (setting [5]), 0.625; in the assay on E. coli ATCC 25922 [1] (setting [6]), 0.375; in the assay on E. coli ATCC 25922 [1] (setting [7]) it was 0.531; in the assay with E. coli ATCC 25922 [1] (setting [8]), 0.625.

For the molecule `CC[C@H](C)[C@H](NC(=O)[C@H](CCCNC(=N)N)NC(=O)[C@H](CCCCN)NC(=O)[C@H](CC(C)C)NC(=O)[C@H](Cc1ccccc1)NC(=O)[C@H](CCCNC(=N)N)NC(=O)[C@H](C)NC(=O)[C@@H](N)C(C)C)C(=O)N[C@H](C(=O)N[C@@H](CCCCN)C(=O)N[C@@H](C)C(=O)N[C@@H](CC(C)C)C(=O)N[C@@H](Cc1ccccc1)C(N)=O)[C@@H](C)CC` [LCAPL8] (H-VARFLKRIIKALF-NH2), the FICI with E. coli ATCC 25922 [1] (setting [3]) was 1.016; in the assay on E. coli ATCC 25922 [1] (setting [4]) it was 1.031; with E. coli ATCC 25922 [1] (setting [5]) it was 1.031; with E. coli ATCC 25922 [1] (setting [6]), 0.531; in the assay with E. coli ATCC 25922 [1] (setting [7]) it was 1.25; in the assay on E. coli ATCC 25922 [1] (setting [8]), 0.625.

Turning to `CC[C@H](C)[C@H](NC(=O)[C@H](Cc1ccccc1)NC(=O)CN)C(=O)N[C@@H](CCCCN)C(=O)N[C@H](C(=O)N[C@H](C(=O)N[C@@H](CCCNC(=N)N)C(=O)N[C@@H](CCCCN)C(=O)N[C@@H](CC(C)C)C(=O)N[C@@H](CC(C)C)C(=O)N[C@@H](CCCNC(=N)N)C(=O)N[C@@H](CC(C)C)C(=O)N[C@@H](Cc1ccccc1)C(N)=O)C(C)C)[C@@H](C)CC` [LCAPL9] (H-GFIKIVRKLLRLF-NH2), the FICI turned out to be 1.016 in the assay with E. coli ATCC 25922 [1] (setting [3]); 0.625 with E. coli ATCC 25922 [1] (setting [4]); 1 in the assay on E. coli ATCC 25922 [1] (setting [5]); 1.031 in the assay on E. coli ATCC 25922 [1] (setting [6]); 2 with E. coli ATCC 25922 [1] (setting [7]); 1.25 in the assay on E. coli ATCC 25922 [1] (setting [8]).

For `CC[C@H](C)[C@H](N)C(=O)N[C@H](C(=O)N[C@@H](CCCCN)C(=O)N[C@@H](CCCNC(=N)N)C(=O)N[C@H](C(=O)N[C@@H](CC(C)C)C(=O)N[C@H](C(=O)N[C@@H](CCC(N)=O)C(=O)N[C@@H](CC(C)C)C(=O)N[C@@H](CCCCN)C(=O)N[C@@H](CCCCN)C(=O)N[C@@H](CC(C)C)C(=O)N[C@@H](CC(C)C)C(N)=O)[C@@H](C)CC)[C@@H](C)CC)[C@@H](C)CC` [LCAPL10] (H-IIKRILIQLKKLL-NH2), the FICI is 1.016 in the assay on E. coli ATCC 25922 [1] (setting [3]); 0.75 in the assay with E. coli ATCC 25922 [1] (setting [4]); 1.125 in the assay with E. coli ATCC 25922 [1] (setting [5]); 0.5 with E. coli ATCC 25922 [1] (setting [6]); 1.031 in the assay on E. coli ATCC 25922 [1] (setting [7]); 0.531 in the assay with E. coli ATCC 25922 [1] (setting [8]).

For the molecule `CC(C)C[C@H](NC(=O)[C@H](Cc1ccccc1)NC(=O)[C@H](CCCCN)NC(=O)[C@@H](N)CCCCN)C(=O)NCC(=O)N[C@@H](CCCCN)C(=O)N[C@@H](Cc1c[nH]c2ccccc12)C(=O)N[C@@H](CCCCN)C(=O)N[C@@H](CC(C)C)C(=O)N[C@@H](CCCNC(=N)N)C(=O)N[C@@H](Cc1ccccc1)C(=O)NCC(=O)N[C@@H](Cc1c[nH]c2ccccc12)C(N)=O` [LCAPL15] (H-KKFLGKWKLRFGW-NH2), the FICI stood at 0.75 in the assay with E. coli ATCC 25922 [1] (setting [3]); 0.563 in the assay with E. coli ATCC 25922 [1] (setting [4]); 1.031 in the assay on E. coli ATCC 25922 [1] (setting [5]); 0.75 in the assay on E. coli ATCC 25922 [1] (setting [6]); 0.75 with E. coli ATCC 25922 [1] (setting [7]); 0.563 in the assay on E. coli ATCC 25922 [1] (setting [8]).

Regarding `CC(C)C[C@@H](N)C(=O)N[C@@H](C(=O)N[C@H](Cc1c[nH]c2ccccc12)C(=O)N[C@H](CCCCN)C(=O)N[C@H](CC(C)C)C(=O)N[C@H](Cc1c[nH]c2ccccc12)C(=O)N[C@H](Cc1c[nH]c2ccccc12)C(=O)N[C@H](CCCNC(=N)N)C(=O)N[C@H](CC(C)C)C(=O)N[C@H](CCCNC(=N)N)C(=O)N[C@H](Cc1c[nH]c2ccccc12)C(=O)N[C@H](CC(C)C)C(=O)N[C@H](CCCCN)C(N)=O)C(C)C` [ST1D] (H-[dL][dV][dW][dK][dL][dW][dW][dR][dL][dR][dW][dL][dK]-NH2), the FICI is reported as 0.625 in the assay on E. coli ATCC 25922 [1] (setting [3]); 0.625 in the assay with E. coli ATCC 25922 [1] (setting [4]); 0.516 with E. coli ATCC 25922 [1] (setting [5]); 0.625 with E. coli ATCC 25922 [1] (setting [6]); 1 in the assay with E. coli ATCC 25922 [1] (setting [7]); 1.031 in the assay on E. coli ATCC 25922 [1] (setting [8]).

Turning to `CC(C)C[C@H](NC(=O)[C@H](Cc1c[nH]c2ccccc12)NC(=O)[C@H](CCCNC(=N)N)NC(=O)[C@H](CC(C)C)NC(=O)[C@H](CCCNC(=N)N)NC(=O)[C@H](Cc1c[nH]c2ccccc12)NC(=O)[C@H](Cc1c[nH]c2ccccc12)NC(=O)[C@H](CC(C)C)NC(=O)[C@H](CCCCN)NC(=O)[C@H](Cc1c[nH]c2ccccc12)NC(=O)[C@@H](NC(=O)[C@@H](N)CC(C)C)C(C)C)C(=O)N[C@@H](CCCCN)C(N)=O` [ST1L] (H-LVWKLWWRLRWLK-NH2), the FICI in the assay with E. coli ATCC 25922 [1] (setting [3]) is recorded as 0.375; in the assay on E. coli ATCC 25922 [1] (setting [4]), 0.625; in the assay with E. coli ATCC 25922 [1] (setting [5]) it was 1; in the assay with E. coli ATCC 25922 [1] (setting [6]) it was 0.516; in the assay with E. coli ATCC 25922 [1] (setting [7]), 0.625; with E. coli ATCC 25922 [1] (setting [8]) it was 0.75.
